Where two headings read alike, the source gives them in different places.

In data set [1] the target is PDGFRα D842V (Homo sapiens (Human), UniProt P16234, D842V). Briefly: PDGFRα D842V biochemical enzymatic activity assay (EZReader 2 mobility shift). The following applies: at APPKM for ATP, 25 μM ATP, 90 minutes. From the text: (§1) PDGFRα and KIT enzymatic activity was monitored using the Perkin Elmer electrophoretic mobility shift technology platform, the EZReader 2.
(§2) Within the linear, steady-state phase of the kinase enzymatic reaction, the mixed pool of phosphorylated (product) and non-phosphorylated (substrate) peptides was passed through the microfluidic system of the PerkinElmer EZ Reader 2, under an applied electric potential difference. The presence of the phosphate group on the product peptide provided a difference in mass and charge between that of the substrate peptide, resulting in a separation of the substrate and product pools in the sample (Perrin et al., Expert Opin Drug Discovery 2010 Jan. 5(1):51-63).
(§3) As the product and substrate peptide mixture passes the lasers within the instrument, these pools are detected (λex=488 nm, λem=568 nm) and resolved as separate peaks. The ratio between these peaks reflects the activity of the compound at that concentration, in that well, under those conditions.
Inhibition of KIT (D816V) PDGFRα (D842V) Mutant Biochemical Enzymatic Activity
(§4) All test articles were dissolved in 100% DMSO at a stock concentration of 10 mM. A 100×, 10-point, 4-fold serial dilution of all test compounds was created in 100% DMSO, starting at a relevant concentration, usually 1 mM. A volume of 0.130 μL of each concentration was transferred to the relevant well of a 384-well assay plate (Greiner 781 201) using a TTPLabtech Mosquito nano-liter dispenser. Using the Multidrop, the remaining constituents of the reaction were then added to the 0.130 μL of compound as follows:
The reaction was stopped by the addition of 70 μl of Stop buffer (100 mM HEPES pH 7.5, 0.015% Brij 35, 35 mM EDTA and 0.2% of Coating Reagent 3, Caliper Lifesciences). The plate was read on a Caliper EZReader 2.

The target of data set [2] is wt KIT kinase (Homo sapiens (Human), UniProt P10721). Kind of data set: Wild-type KIT binding assay (Kd determination, phage-tagged kinase, qPCR). Here is the method: Kd Determinations. For most assays, including wt KIT kinase, kinase-tagged T7 phage strains were prepared in an E. coli host derived from the BL21 strain. E. coli were grown to log-phase and infected with T7 phage and incubated with shaking at 32° C. until lysis. […] The liganded beads were blocked with excess biotin and washed with blocking buffer (SeaBlock (Pierce), 1% BSA, 0.05% Tween 20, 1 mM DTT) to remove unbound ligand and to reduce non-specific binding. […] Test compounds were prepared as 111× stocks in 100% DMSO. Kds were determined using an 11-point 3-fold compound dilution series with three DMSO control points. […] The compounds were then diluted directly into the assays such that the final concentration of DMSO was 0.9%. All reactions were performed in polypropylene 384-well plate. Each was a final volume of 0.02 ml. […] The kinase concentration in the eluates was measured by qPCR.
Binding Constants (Kds). Binding constants (Kds) were calculated with a standard dose-response curve using the Hill equation: Response=Background+Signal−Background 1+(KdHill Slope/DoseHill Slope). The Hill Slope was set to −1. Curves were fitted using a non-linear least square fit with the Levenberg-Marquardt algorithm.
(In qPCR the cycle at which signal appears reflects the starting amount.)

Data set [3] addresses KIT D816V (Homo sapiens (Human), UniProt P10721, D816V). Briefly: KIT D816V biochemical enzymatic activity assay (EZReader 2 mobility shift). The settings on record: at APPKM for ATP, 20 μM ATP, 60 minutes.
Source text: as §1, §2, §3, §4
The plate was read on a Caliper EZReader 2.

The nature of data set [4]: Brain penetration in rats, brain to plasma ratios (Kp,brain, Kpuu,brain). The class given is in vivo, Sprague-Dawley rats. The settings on record: for Kp uu at 24 h / Kp at 24 h: Sprague-Dawley, rat, brain, intravenous, 1 mg/kg/hr; for Kp at 24 h / Rat Kp: rat brain to plasma ratio; for Kp at 24 h: read-out: Rat Kp. From the text: To understand the brain penetration, brain to plasma ratios of the compounds were obtained in Sprague-Dawley (SD) rats. In vivo equilibrium distribution between blood and brain in preclinical species such as rats is a commonly used parameter to evaluate brain penetration. Kp,brain is the ratio of concentrations in brain and blood (Cbrain/Cplasma) The compound's passive diffusion characteristics, its affinity for membrane transporters at the blood-brain barrier (BBB), and the relative drug binding affinity differences between the plasma proteins and brain tissue influence the Kp,brain.
The animals received IV infusion of 1 mg/kg/hr of the compound over 24 hours via jugular vein cannulation. At 24 hours, blood was collected via tail vein bleeding or cardiac puncture (under anesthesia) and centrifuged to obtain plasma samples. Brain tissues were collected and homogenized with phosphate-buffered saline (PBS). The concentrations of the compounds were obtained in the plasma and brain homogenates by LC-MS/MS analysis.

Data set [5] concerns UT-7 cells. Kind of data set: UT-7 cell proliferation with SCF stimulation as a measure of wild-type KIT activity (CellTiter-Glo). The class given is cell-based, human. The settings on record: Homo sapiens, UT7, 72 h, SCF-stimulated UT-7 cell proliferation. An excerpt:
UT-7 Cell Proliferation with SCF Stimulation Assay as a Measure of Wild-Type KIT Activity
UT-7 cells are human megakaryoblastic leukemia cell lines that can be grown in culture with dependence on granulocyte macrophage colony stimulating factor (GM-CSF) or stem cell factor (SCF). UT-7 cells respond to SCF stimulation by activation of the KIT receptor tyrosine kinase and subsequent downstream signaling that can support cell growth and proliferation (Kuriu et al, 1999; Komatsu et al, 1991; Sasaki et al, 1995). Test compounds were assayed for their ability to inhibit SCF-stimulated proliferation of UT-7 cells.
Inhibition of SCF-stimulated UT-7 cell proliferation was assessed using the CellTiter-Glo assay that quantifies the amount of adenosine triphosphate (ATP) present, which is a readout of metabolically active cells and is directly proportional to the number of viable cells in culture. The ability of test compounds to inhibit SCF-stimulated UT-7 cell proliferation was determined using a 10-point dose curve ranging from 25 μM to 95.4 pM of test compound.
UT-7 cells were maintained in IMDM supplemented with 10% FBS, 5 ng/mL GM-CSF and 100 units/mL Penicillin-Streptomycin and grown in a 37° C. humidified tissue culture incubator. UT-7 cells were washed once with serum free, GM-CSF free IMDM. Cells were then resuspended in IMDM containing 4% FBS and 50 ng/mL SCF and seeded at 2500 cells per well in a volume of 22 μL in a 384-well microplate. A 10-point dose concentration series of test compounds (25.0 μM to 95.4 pM) were then added to the cells in a volume of 3.1 μL to each well (0.25% DMSO final concentration) and placed in a tissue culture incubator (5% CO2, 37° C.) for 72 hours. After 3-days with test compound, CellTiter-Glo reagent was prepared fresh and 25 μL of reagent was added to each well. The plate was mixed by shaking for 10 minutes at RT at 300 rpm on a plate shaker. The plate was read on an EnVision plate reader using the Ultra Sensitive Luminescence protocol for a 384-well plate.
Background: In ATP-based viability assays light output follows the ATP content of the culture.

The target of data set [6] is KIT D816V (Homo sapiens (Human), UniProt P10721, D816V/V560G). Briefly: HMC1.2 autophosphorylation assay (phospho-Y719 KIT AlphaLISA). Type of data set: cell-based. The settings on record: HMC1.2 cell line, KIT autophosphorylation at tyrosine 719, 90 minutes; read-out: KIT (P-KIT HMC1.2 (nM)). Here is the method: 10,000 HMC1.2 cells were incubated in 22 μL culture media (phenol-red free IMDM, no serum) in each well of a 384-well plate and serum starved overnight in a tissue culture incubator (5% CO2, 37° C.). […] 10 μL of 100 μg/mL streptavidin donor beads (Perkin Elmer) were added to each well, blocked from light with solid black adhesive and shaken at 300 rpm at room temperature for 2 hours. Fluorescence signal was obtained on Envision (Perkin Elmer) by AlphaScreen 384 well HTS protocol.

[7] abbreviates: homogenate rat brain, read-out: Rat Kp, uu Homogenate.
Setting [8] is: rat brain slice, read-out: Rat Kp, uu Brain slice.

Sequence of wt KIT kinase (P10721 26-976): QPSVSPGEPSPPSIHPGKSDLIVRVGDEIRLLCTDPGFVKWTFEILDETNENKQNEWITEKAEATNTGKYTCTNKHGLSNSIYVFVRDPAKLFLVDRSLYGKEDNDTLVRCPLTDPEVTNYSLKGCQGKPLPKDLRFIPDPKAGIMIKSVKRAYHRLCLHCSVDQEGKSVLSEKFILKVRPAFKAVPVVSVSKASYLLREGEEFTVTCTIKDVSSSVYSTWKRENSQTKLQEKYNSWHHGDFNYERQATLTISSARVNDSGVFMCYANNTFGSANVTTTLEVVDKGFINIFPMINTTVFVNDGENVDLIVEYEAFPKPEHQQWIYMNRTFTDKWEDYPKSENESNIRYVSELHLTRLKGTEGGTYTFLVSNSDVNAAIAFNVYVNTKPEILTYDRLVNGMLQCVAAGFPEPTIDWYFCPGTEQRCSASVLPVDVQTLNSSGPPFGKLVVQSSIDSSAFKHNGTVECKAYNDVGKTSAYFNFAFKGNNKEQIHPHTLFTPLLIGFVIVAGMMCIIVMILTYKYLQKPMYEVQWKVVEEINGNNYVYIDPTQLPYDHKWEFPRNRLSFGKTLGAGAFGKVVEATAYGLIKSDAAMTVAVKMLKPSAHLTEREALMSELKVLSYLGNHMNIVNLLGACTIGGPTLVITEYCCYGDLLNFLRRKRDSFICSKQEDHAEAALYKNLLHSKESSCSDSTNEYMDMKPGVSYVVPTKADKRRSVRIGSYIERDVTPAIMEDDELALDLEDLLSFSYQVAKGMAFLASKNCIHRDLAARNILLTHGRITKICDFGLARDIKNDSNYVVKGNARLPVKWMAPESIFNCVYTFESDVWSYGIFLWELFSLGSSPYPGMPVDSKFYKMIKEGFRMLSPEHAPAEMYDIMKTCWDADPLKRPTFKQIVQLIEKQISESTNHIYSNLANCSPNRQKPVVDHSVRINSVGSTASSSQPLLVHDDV
Sequence of PDGFRα D842V (P16234 24-1089 D842V): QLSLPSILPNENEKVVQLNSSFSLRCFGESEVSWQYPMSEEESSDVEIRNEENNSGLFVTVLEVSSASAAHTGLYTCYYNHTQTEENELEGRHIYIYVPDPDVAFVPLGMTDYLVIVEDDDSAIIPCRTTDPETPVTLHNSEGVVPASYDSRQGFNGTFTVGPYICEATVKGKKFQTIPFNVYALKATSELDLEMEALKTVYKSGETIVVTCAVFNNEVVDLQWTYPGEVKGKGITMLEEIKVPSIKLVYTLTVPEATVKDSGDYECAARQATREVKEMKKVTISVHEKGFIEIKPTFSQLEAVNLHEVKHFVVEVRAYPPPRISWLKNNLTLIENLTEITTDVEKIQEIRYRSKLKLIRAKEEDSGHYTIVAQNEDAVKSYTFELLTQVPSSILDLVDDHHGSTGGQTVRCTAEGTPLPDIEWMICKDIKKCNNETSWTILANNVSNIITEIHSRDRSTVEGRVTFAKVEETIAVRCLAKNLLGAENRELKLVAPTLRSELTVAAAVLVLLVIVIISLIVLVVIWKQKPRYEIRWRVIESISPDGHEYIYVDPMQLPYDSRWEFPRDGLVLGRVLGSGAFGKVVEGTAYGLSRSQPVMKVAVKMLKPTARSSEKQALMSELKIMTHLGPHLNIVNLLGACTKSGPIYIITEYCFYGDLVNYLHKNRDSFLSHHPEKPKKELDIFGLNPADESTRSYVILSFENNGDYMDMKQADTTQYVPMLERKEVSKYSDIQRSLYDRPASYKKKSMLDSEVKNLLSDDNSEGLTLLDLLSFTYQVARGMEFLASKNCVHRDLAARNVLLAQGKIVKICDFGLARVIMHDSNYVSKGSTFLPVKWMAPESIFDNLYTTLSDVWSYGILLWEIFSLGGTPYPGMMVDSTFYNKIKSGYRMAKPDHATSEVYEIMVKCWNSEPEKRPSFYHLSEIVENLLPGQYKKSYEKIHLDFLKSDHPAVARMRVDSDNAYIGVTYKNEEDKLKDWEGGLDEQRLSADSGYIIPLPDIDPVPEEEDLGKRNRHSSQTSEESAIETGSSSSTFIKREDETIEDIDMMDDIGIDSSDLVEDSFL
Sequence of KIT D816V (Homo sapiens (Human), UniProt P10721, D816V) (P10721 26-976 D816V): as the sequence (P10721 26-976) above, with D791V counted along it
Sequence of KIT D816V (Homo sapiens (Human), UniProt P10721, D816V/V560G) (P10721 26-976 V560G/D816V): as the sequence (P10721 26-976) above, with V535G, D791V counted along it

In the case of `C[C@](N)(c1ccc(F)cc1)c1cnc(N2CCN(c3ncnn4cc(-c5cnn([C@@H]6CCOC6)c5)cc34)CC2)nc1` [Compound 14, (S)-1-(4-Fluorophenyl)-1-(2-(4-(6-(1-((R)-tetrahydrofuran-3-yl)-1H-pyrazol-4-yl)pyrrolo[2,1-f][1,2,4]triazin-4-yl)piperazin-1-yl)pyrimidin-5-yl)ethanamine], the IC50 in data set [1] is no more than 0.3 nM; in data set [3], no more than 0.3 nM; in data set [5], 150 to 200 nM; in data set [6], less than 4.5 nM. The same molecule came in with an equilibrium dissociation constant (Kd) in data set [2] of less than 10 nM. Besides, the Kp uu at 24 h in data set [4] (setting [7]) came out at 0.22. Moreover, the Kp at 24 h in data set [4] was less than 0.39. Besides, the “Rat Kp” value in data set [4] is given as 0.35.

For the molecule `C[C@](N)(c1ccc(F)cc1)c1cnc(N2CCN(c3ncnn4cc(-c5cnn([C@H]6C[C@@H](O)C6)c5)cc34)CC2)nc1` [Compound 10, cis-3-(4-(4-(4-(5-((S)-1-Amino-1-(4-fluorophenyl)ethyl)pyrimidin-2-yl)piperazin-1-yl)pyrrolo[2,1-f][1,2,4]triazin-6-yl)-1H-pyrazol-1-yl)cyclobutanol], the IC50 in data set [1] was no more than 0.3 nM; in data set [3], 0.31 to 1 nM; in data set [5], less than 90 nM; in data set [6] it was less than 4.5 nM. In data set [2], the equilibrium dissociation constant (Kd) is less than 10 nM. Besides, in data set [4], the “Rat Kp” value stood at 0.23.

`C[C@](N)(c1ccc(F)cc1)c1cnc(N2CCN(c3ncnn4cc(-c5cnn(C6CCOCC6)c5)cc34)CC2)nc1` [Compound 16, (S)-1-(4-Fluorophenyl)-1-(2-(4-(6-(1-(tetrahydro-2H-pyran-4-yl)-1H-pyrazol-4-yl)pyrrolo[2,1-f][1,2,4]triazin-4-yl)piperazin-1-yl)pyrimidin-5-yl)ethan-1-amine]: the IC50 was no more than 0.3 nM in data set [1], no more than 0.3 nM in data set [3], 150 to 200 nM in data set [5] and 4.6 to 10 nM in data set [6]. In data set [2], this molecule came in with a dissociation constant Kd of less than 10 nM. Moreover, the Kp uu at 24 h in data set [4] (setting [7]) was no more than 0.2; in data set [4] (setting [8]) it was no more than 0.1. In data set [4], the partition ratio (Kp) at 24 h was determined as 0.93.

For `C[C@](N)(c1ccc(F)cc1)c1cnc(N2CCN(c3ncnn4cc(-c5cnn([C@H]6CC[C@@H]6O)c5)cc34)CC2)nc1` (single isomer, unassigned) [Compound 21], the IC50 was no more than 0.3 nM in data set [1], 0.31 to 1 nM in data set [3], 90.1 to 150 nM in data set [5] and less than 4.5 nM in data set [6]. Besides, the equilibrium dissociation constant (Kd) in data set [2] was less than 10 nM. Besides, the Kp uu at 24 h was 0.36 in data set [4] (setting [7]) and no more than 0.1 in data set [4] (setting [8]).

For the molecule `C[C@](N)(c1ccc(F)cc1)c1cnc(N2CCN(c3ncnn4cc(-c5cnn([C@H]6CCOC6)c5)cc34)CC2)nc1` [Compound 15, (S)-1-(4-Fluorophenyl)-1-(2-(4-(6-(1-((S)-tetrahydrofuran-3-yl)-1H-pyrazol-4-yl)pyrrolo[2,1-f][1,2,4]triazin-4-yl)piperazin-1-yl)pyrimidin-5-yl)ethanamine], the IC50 was no more than 0.3 nM in data set [1], no more than 0.3 nM in data set [3], 150 to 200 nM in data set [5] and less than 4.5 nM in data set [6]. Besides, the equilibrium dissociation constant (Kd) in data set [2] is less than 10 nM. The values for the Kp uu at 24 h in data set [4] (setting [7]) and in data set [4] (setting [8]) were 0.62 and no more than 0.1, respectively. Also, the Kp at 24 h in data set [4] stood at 0.9.

Take `C[C@](N)(c1ccc(F)cc1)c1cnc(N2CCN(c3ncnn4cc(-c5cnn([C@@H]6COC[C@H]6O)c5)cc34)CC2)nc1` (single isomer, unassigned) [Compound 19]: the IC50 in data set [1] was no more than 0.3 nM; in data set [3], no more than 0.3 nM; in data set [5], 90.1 to 150 nM; in data set [6], less than 4.5 nM. The Kd in data set [2] was less than 10 nM. Moreover, the Kp uu at 24 h in data set [4] (setting [8]) was 0.04.

As for `C[C@](N)(c1ccc(F)cc1)c1cnc(N2CCN(c3ncnn4cc(-c5cnn(CC6COC6)c5)cc34)CC2)nc1` [Compound 8, (S)-1-(4-fluorophenyl)-1-(2-(4-(6-(1-(oxetan-3-ylmethyl)-1H-pyrazol-4-yl)pyrrolo[2,1-f][1,2,4]triazin-4-yl)piperazin-1-yl)pyrimidin-5-yl)ethan-1-amine], the IC50 in data set [1] is no more than 0.3 nM; in data set [3], no more than 0.3 nM; in data set [5] it was less than 90 nM; in data set [6], less than 4.5 nM. In data set [2], this molecule returned a dissociation constant Kd of less than 10 nM. Further, the Kp uu at 24 h in data set [4] (setting [7]) is no more than 0.2; in data set [4] (setting [8]), no more than 0.1. Also, the concentration ratio (Kp) at 24 h in data set [4] stood at 0.43.

By Kd is commonly meant the equilibrium constant for the complex coming apart. For orientation: Kp means the ratio of the level in a tissue or fluid to that in plasma or blood.
